From PubChem BioAssay AID1745844 (Carcinogenic Potency Database (CPDB), 2022) come the findings set out here.

“And” between values parts separate entries of the source, which are not always exact repeats. Equal entries are not always repeated. The source made the active and inactive calls. How the calls were made is not given here.

The test system of the data set is rodent lifetime carcinogenesis bioassay, tumor incidence TD50. Description: carcinogenic potency in animals, long-term in vivo studies, CPDB compilation (AID 1745844).

With `[O-][Br+2]([O-])O`, the TD50 was 533 mg/kg/day (hamster, strain Syrian Golden, males, in drinking water, site: kidney, lesion: renal-cell tumor, dosed 89 weeks, study length 89 weeks); 477 mg/kg/day (mouse, strain B6C3F1, females, in drinking water, site: any site (literature study), lesion: several types, types named in the paper, dosed 78 weeks, study length 104 weeks); 1180 mg/kg/day (mouse, strain B6C3F1, females, in drinking water, site: liver, lesion: adenoma, dosed 78 weeks, study length 104 weeks); 1710 mg/kg/day (mouse, strain B6C3F1, females, in drinking water, site: liver, lesion: several types, types named in the paper, dosed 78 weeks, study length 104 weeks); 2030 mg/kg/day (mouse, strain B6C3F1, females, in drinking water, site: lung, lesion: adenoma, dosed 78 weeks, study length 104 weeks); 1050 mg/kg/day (mouse, strain B6C3F1, females, in drinking water, site: lung, lesion: several types, types named in the paper, dosed 78 weeks, study length 104 weeks). For the same molecule, the TD50 is 92.5 mg/kg/day (mouse, strain B6C3F1, males, in drinking water, site: kidney, lesion: renal-cell carcinoma, dosed 100 weeks, study length 100 weeks); 53.8 mg/kg/day (mouse, strain B6C3F1, males, in drinking water, site: kidney, lesion: several types, types named in the paper, dosed 100 weeks, study length 100 weeks); 347 mg/kg/day (inactive) (mouse, strain Theiller's Original, females, in feed, site: liver, lesion: hemangioma, dosed 80 weeks, study length 80 weeks); 79.2 mg/kg/day (rat, strain F344/DuCrj, males, in drinking water, site: kidney, lesion: adenocarcinoma, dosed 26 weeks, study length 104 weeks); 16.9 mg/kg/day (rat, strain F344/DuCrj, males, in drinking water, site: kidney, lesion: adenocarcinoma, dosed 39 weeks, study length 104 weeks); 35.5 mg/kg/day (rat, strain F344/DuCrj, males, in drinking water, site: kidney, lesion: adenocarcinoma, dosed 52 weeks, study length 104 weeks). Moreover, the TD50 runs as follows: (rat, strain F344/DuCrj, males, in drinking water, site: kidney, lesion: adenocarcinoma, dosed 104 weeks, study length 104 weeks) 105 mg/kg/day and 224 mg/kg/day; (rat, strain F344/DuCrj, males, in drinking water, site: kidney, lesion: adenoma, dosed 26 weeks, study length 104 weeks) 6.67 mg/kg/day; (rat, strain F344/DuCrj, males, in drinking water, site: kidney, lesion: adenoma, dosed 39 weeks, study length 104 weeks) 5.57 mg/kg/day; (rat, strain F344/DuCrj, males, in drinking water, site: kidney, lesion: adenoma, dosed 52 weeks, study length 52 weeks) 4.98 mg/kg/day; (rat, strain F344/DuCrj, males, in drinking water, site: kidney, lesion: adenoma, dosed 52 weeks, study length 104 weeks) 10.1 mg/kg/day; (rat, strain F344/DuCrj, males, in drinking water, site: kidney, lesion: adenoma, dosed 104 weeks, study length 104 weeks) 48 mg/kg/day and 35.7 mg/kg/day. Further, the TD50 reads like this: (rat, strain F344/DuCrj, males, in drinking water, site: kidney, lesion: renal-cell tumor, dosed 104 weeks, study length 104 weeks) 28.9 mg/kg/day; (rat, strain F344/DuCrj, males, in drinking water, site: kidney, lesion: several types, types named in the paper, dosed 26 weeks, study length 104 weeks) 6.67 mg/kg/day; (rat, strain F344/DuCrj, males, in drinking water, site: kidney, lesion: several types, types named in the paper, dosed 39 weeks, study length 104 weeks) 4.81 mg/kg/day; (rat, strain F344/DuCrj, males, in drinking water, site: kidney, lesion: several types, types named in the paper, dosed 52 weeks, study length 104 weeks) 8.32 mg/kg/day; (rat, strain F344/DuCrj, males, in drinking water, site: kidney, lesion: several types, types named in the paper, dosed 104 weeks, study length 104 weeks) 28.7 mg/kg/day; (rat, strain F344/DuCrj, males, in drinking water, site: liver, lesion: neoplastic nodule, dosed 104 weeks, study length 104 weeks) 53.2 mg/kg/day. For the same molecule, the TD50 runs as follows: (rat, strain F344/DuCrj, males, in drinking water, site: peritoneum, lesion: mesothelioma, dosed 26 weeks, study length 104 weeks) 7.84 mg/kg/day; (rat, strain F344/DuCrj, males, in drinking water, site: peritoneum, lesion: mesothelioma, dosed 39 weeks, study length 104 weeks) 14 mg/kg/day; (rat, strain F344/DuCrj, males, in drinking water, site: peritoneum, lesion: mesothelioma, dosed 52 weeks, study length 52 weeks) 25.6 mg/kg/day; (rat, strain F344/DuCrj, males, in drinking water, site: peritoneum, lesion: mesothelioma, dosed 52 weeks, study length 104 weeks) 19.4 mg/kg/day; (rat, strain F344/DuCrj, males, in drinking water, site: peritoneum, lesion: mesothelioma, dosed 104 weeks, study length 104 weeks) 12.4 mg/kg/day and 19.5 mg/kg/day; (rat, strain F344/DuCrj, males, in drinking water, site: thyroid gland, lesion: follicular-cell adenoma, dosed 104 weeks, study length 104 weeks) 59.5 mg/kg/day. For the same molecule, the TD50 reads like this: (rat, strain F344/DuCrj, males, in drinking water, site: thyroid gland, lesion: follicular-cell tumor, dosed 26 weeks, study length 104 weeks) 11.3 mg/kg/day; (rat, strain F344/DuCrj, males, in drinking water, site: thyroid gland, lesion: follicular-cell tumor, dosed 52 weeks, study length 104 weeks) 19.4 mg/kg/day; (rat, strain F344/DuCrj, males, in drinking water, site: thyroid gland, lesion: follicular-cell tumor, dosed 104 weeks, study length 104 weeks) 39.8 mg/kg/day and 54.7 mg/kg/day; (rat, strain Fischer 344, females, in drinking water, site: any site (literature study), lesion: several types, types named in the paper, dosed 110 weeks, study length 111 weeks) 9.05 mg/kg/day; (rat, strain Fischer 344, females, in drinking water, site: kidney, lesion: adenocarcinoma, dosed 110 weeks, study length 111 weeks) 16.4 mg/kg/day; (rat, strain Fischer 344, females, in drinking water, site: kidney, lesion: adenoma, dosed 110 weeks, study length 111 weeks) 87.5 mg/kg/day. Moreover, the TD50 is, setting by setting: (rat, strain Fischer 344, females, in drinking water, site: kidney, lesion: several types, types named in the paper, dosed 110 weeks, study length 111 weeks) 13.7 mg/kg/day; (rat, strain Fischer 344, females, in drinking water, site: thyroid gland, lesion: several types, types named in the paper, dosed 110 weeks, study length 111 weeks) 97.6 mg/kg/day; (rat, strain Fischer 344, males, in drinking water, site: kidney, lesion: adenocarcinoma, dosed 110 weeks, study length 111 weeks) 12.6 mg/kg/day; (rat, strain Fischer 344, males, in drinking water, site: kidney, lesion: adenoma, dosed 110 weeks, study length 111 weeks) 46.2 mg/kg/day; (rat, strain Fischer 344, males, in drinking water, site: kidney, lesion: renal-cell adenoma, dosed 52 weeks, study length 52 weeks) 16.7 mg/kg/day; (rat, strain Fischer 344, males, in drinking water, site: kidney, lesion: renal-cell adenoma, dosed 77 weeks, study length 77 weeks) 15.3 mg/kg/day. The TD50 is, setting by setting: (rat, strain Fischer 344, males, in drinking water, site: kidney, lesion: renal-cell adenoma, dosed 100 weeks, study length 100 weeks) 31.1 mg/kg/day; (rat, strain Fischer 344, males, in drinking water, site: kidney, lesion: renal-cell carcinoma, dosed 100 weeks, study length 100 weeks) 62.2 mg/kg/day; (rat, strain Fischer 344, males, in drinking water, site: kidney, lesion: several types, types named in the paper, dosed 100 weeks, study length 100 weeks) 20.8 mg/kg/day; (rat, strain Fischer 344, males, in drinking water, site: kidney, lesion: several types, types named in the paper, dosed 110 weeks, study length 111 weeks) 9.62 mg/kg/day; (rat, strain Fischer 344, males, in drinking water, site: liver, lesion: several types, types named in the paper, dosed 110 weeks, study length 111 weeks) 164 mg/kg/day; (rat, strain Fischer 344, males, in drinking water, site: peritoneum, lesion: mesothelioma, dosed 110 weeks, study length 111 weeks) 25.3 mg/kg/day. Also, the TD50 was 35.2 mg/kg/day (rat, strain Fischer 344, males, in drinking water, site: thyroid gland, lesion: follicular-cell adenoma, dosed 100 weeks, study length 100 weeks); 34.8 mg/kg/day (rat, strain Fischer 344, males, in drinking water, site: thyroid gland, lesion: follicular-cell carcinoma, dosed 77 weeks, study length 77 weeks); 62.9 mg/kg/day (rat, strain Fischer 344, males, in drinking water, site: thyroid gland, lesion: follicular-cell carcinoma, dosed 100 weeks, study length 100 weeks); 21.8 mg/kg/day (rat, strain Fischer 344, males, in drinking water, site: thyroid gland, lesion: several types, types named in the paper, dosed 77 weeks, study length 77 weeks); 22.2 mg/kg/day (rat, strain Fischer 344, males, in drinking water, site: thyroid gland, lesion: several types, types named in the paper, dosed 100 weeks, study length 100 weeks); 36.1 mg/kg/day (rat, strain Fischer 344, males, in drinking water, site: tunica vaginalis, lesion: mesothelioma, dosed 52 weeks, study length 52 weeks). For the same molecule, the TD50 reads like this: (rat, strain Fischer 344, males, in drinking water, site: tunica vaginalis, lesion: mesothelioma, dosed 77 weeks, study length 77 weeks) 15.3 mg/kg/day; (rat, strain Fischer 344, males, in drinking water, site: tunica vaginalis, lesion: mesothelioma, dosed 100 weeks, study length 100 weeks) 11.1 mg/kg/day. Further, the carcinogen call runs as follows: (mouse, strain Theiller's Original, males, in feed, site: any site (literature study), lesion: malignant tumor, dosed 80 weeks, study length 80 weeks) “negative (inactive)”; (mouse, strain Theiller's Original, males, in feed, site: liver, lesion: one or several types, types not named, dosed 80 weeks, study length 80 weeks) “negative (inactive)”.

Turning to `CC(=O)OC/C=C(C)/C=C/C=C(C)/C=C/C1=C(C)CCCC1(C)C`, the TD50 is 7340 mg/kg/day (rat, strain F344/DuCrj, females, in drinking water, site: adrenal medulla, lesion: pheochromocytoma, malignant, dosed 104 weeks, study length 108 weeks); 227 mg/kg/day (rat, strain F344/DuCrj, females, in drinking water, site: adrenal medulla, lesion: pheochromocytoma, dosed 104 weeks, study length 108 weeks); 7340 mg/kg/day (rat, strain F344/DuCrj, females, in drinking water, site: liver, lesion: neoplastic nodule, dosed 104 weeks, study length 108 weeks); 552 mg/kg/day (rat, strain F344/DuCrj, males, in drinking water, site: adrenal medulla, lesion: pheochromocytoma, malignant, dosed 104 weeks, study length 108 weeks); 86.4 mg/kg/day (rat, strain F344/DuCrj, males, in drinking water, site: adrenal medulla, lesion: pheochromocytoma, dosed 104 weeks, study length 108 weeks); 6470 mg/kg/day (rat, strain F344/DuCrj, males, in drinking water, site: liver, lesion: cholangioma, dosed 104 weeks, study length 108 weeks). The TD50 by setting is: (rat, strain F344/DuCrj, males, in drinking water, site: liver, lesion: neoplastic nodule, dosed 104 weeks, study length 108 weeks) 2060 mg/kg/day; (rat, strain F344/DuCrj, males, in drinking water, site: liver, lesion: several types, types named in the paper, dosed 104 weeks, study length 108 weeks) 3670 mg/kg/day; (rat, strain F344/DuCrj, males, in drinking water, site: spleen, lesion: mononuclear-cell leukemia, dosed 104 weeks, study length 108 weeks) 548 mg/kg/day; (rat, strain F344/DuCrj, males, in drinking water, site: thyroid gland, lesion: c-cell adenoma, dosed 104 weeks, study length 108 weeks) 671 mg/kg/day; (rat, strain F344/DuCrj, males, in drinking water, site: thyroid gland, lesion: several types, types named in the paper, dosed 104 weeks, study length 108 weeks) 976 mg/kg/day. For the same molecule, the carcinogen call (rat, strain F344/DuCrj, males, in drinking water, site: forestomach, lesion: neoplasm, dosed 52 weeks, study length 52 weeks) was “negative (inactive)”.

With `NC(=O)N/N=C/c1ccco1`, the TD50 (rat, strain Sprague-Dawley, females, in feed, site: mammary gland, lesion: fibroadenoma, dosed 46 weeks, study length 66 weeks) is 48.8 mg/kg/day (inactive).

On to `ClCOCc1ccc(COCCl)cc1`, for which, under “mouse, strain Ha/ICR, females, i.p., site: abdomen, lesion: sarcoma, dosed 77 weeks, study length 77 weeks”, the TD50 is 3.11 mg/kg/day.

The term TD50 denotes the 50% point of the dose-response relation for the toxic effect studied.
